The target of test [1] is T1, cyclin D1-cdk4 (Homo sapiens, UniProt P11802). As to the kind of experiment: Assay of Cyclin D1-cdk4 kinase activity with the ING peptide as substrate. Format: biochemical. The note with it: 200 uM ING peptide, 300 uM ATP, 60 minutes, room temperature. As for the experimental part: Assay of Cyclin D1-cdk4 kinase activity with the ING Peptide as Substrate
The cyclin D1-cdk4 kinase activity of a compound was assayed by preparing a 100 ul reaction at the following concentrations: 35 mM Hepes pH 7.0, 10 mM MgCl2, 300 uM ATP, 200 uM ING peptide, 1.0 uCi of γ-^33P-ATP, 4.34 ug of cyclin D-cdk4 enzyme, 4% DMSO, and various concentrations of inhibitor. The reaction was incubated at room temperature (about 74° F.) for 60 minutes, and then terminated by the addition of 100 ul of 10% phosphoric acid. Next, the reaction was filtered through a Millipore Multiscreen-PH Plate—Catalog number MAPH NOB 10, and the plate was washed 2 times with 320 ul each of 0.5% phosphoric acid, followed by the addition of 100 ul of scintillation fluid and quantitation on a Packard Instruments, Top Count, scintillation counter.

Test [2] deals with HCT-116 and NCI H460 cell lines. The test is described as follows: Cell cycle analysis using flow cytometry. In kind it is cell-based. As to conditions: compound at 1x IC50 and 3x IC50, 24 hours, DNA histogram analysis. The procedure: Cell Cycle Analysis Using Flow Cytometry
The HCT-116 and NCI H460 cell lines were seeded in 75 cm^2 flasks at 5×10^5 cells/25 ml RPMI 1640 medium containing 10% dialyzed fetal bovine serum. They were incubated for 24 hours. […] The cells were subsequently harvested and the protocol (Robinson, J. P. and Darzynkiewicz, Z. Current Protocols in Cytometry. 1997) for staining was followed. DNA histogram analysis was performed using ModFit LT(Verity House).
In general terms: A flow cytometer gives signals particle by particle.

Test [3] concerns Ser-780 pRb phosphorylation in HCT116 cells. As to the kind of experiment: Inhibition of Rb phosphorylation assay. As to conditions: 1x, 2x and 3x IC50, 24 hours, immunoblot. Format: cell-based, Human. The procedure: Inhibition of Rb Phosphorylation Assay
Human HCT116 colon carcinoma cell line was purchased from American Tissue Culture Collection (Rockville, Md.) and maintained as monolayer in RPMI-1640 with L-Glutamine and 25 mM HEPES supplemented with 10% fetal bovine serum in a 37° C. incubator with a 10% CO2 atmosphere. The detection of mycoplasm in cultured cells was performed using Mycoplasma Rapid Detection System (TaKaRa Shuzo Co. Ltd., Shiga, Japan) every 2-3 months and the cells were found consistently negative throughout these experiments. The Rb phosphorylation assay was done be plating 4×10^5 cells/well in 6-well plates. […] At the end of the incubation period the mediumj was removed and the cells were washed twice with cold PBS containing 1 mM sodium orthovanadate (Na3VO4). […] Protein concentration was determined by the Bio-Rad DC protein assay (Bio-Rad, Hercules, Calif.). […] Proteins were detected by capturing image of the membrane using Quantity One Software on a Fluor-S multi-Imager (Bio-Rad, Hercules, Calif.) in a linear range. Specific bands were quantified using Quantity One Software. […] Results are expressed as a percentage inhibition of Ser-780 pRb phosphorylation in drug treated cells versus control DMSO treated cells.
On the technique in general: In western blotting, separated proteins are transferred to a membrane and probed.

The subject of test [4] is HCT-116 or NCI H460 cells. The test is described as follows: Cell growth inhibition assay (MTT). The note with it: 72 h drug exposure. In kind it is cell-based. The procedure: Cell Growth Inhibition Assay The MTT assay was used to measure growth inhibitory activity (Schultz, R. M., et. al. Oncology Res. 5, 223-228, 1993). […] Basically, 1000 HCT-116 or NCI H460 cells were added per well to 96-well flat-bottom plates in 100-ul RPMI 1640 medium containing 10% dialyzed fetal bovine serum. The plates were incubated for 24 h prior to addition of test compounds. A stock solution (10 mM) was prepared in DMSO and serially diluted in medium. Compound dilutions were added to triplicate wells, and the plates were incubated for 72 hours.

A further test relates to protein kinase A. The note with it: cited from earlier work.
For another test, the system named is protein kinase C. As to conditions: cited from earlier work.
Test [5] has as its target T1, cyclin D1-cdk4. As to the kind of experiment: Assay of Cyclin D1-cdk4 kinase activity with the Rb21 protein as substrate. Format: biochemical. The note with it: 5 ug Rb21 protein, 30 uM ATP, 60 minutes, room temperature; read-out: Kinase Activity with Rb2l. The procedure:
Assay of Cyclin D1-cdk4 Kinase Activity with the Rb21 Protein as Substrate
The cyclin D1-cdk4 kinase activity of a compound was assayed by preparing a 100 ul reaction at the following concentrations: 20 mM Hepes pH 7.0, 10 mM MgCl2, 30 uM ATP, 5 ug of Rb21 protein (Santa Cruz Biotech, Catalog # sc-4112), 1.0 uCi of γ-^33P-ATP, 1.09 ug of cyclin D-cdk4 enzyme, 4% DMSO, and various concentrations of inhibitor. The reaction was incubated at room temperature (about 74° F.) for 60 minutes, and then terminated by the addition of 100 ul of 25% trichloroacetic acid. Next, the reaction was filtered through a Millipore Multiscreen-FC Plate—Catalog number MAFC NOB 10, and the plate was washed 2 times with 320 ul each of 10% trichloroacetic acid, followed by the addition of 100 ul of scintillation fluid and quantitation on a Packard Instruments, Top Count, scintillation counter.

T1 sequence (P11802 whole entry): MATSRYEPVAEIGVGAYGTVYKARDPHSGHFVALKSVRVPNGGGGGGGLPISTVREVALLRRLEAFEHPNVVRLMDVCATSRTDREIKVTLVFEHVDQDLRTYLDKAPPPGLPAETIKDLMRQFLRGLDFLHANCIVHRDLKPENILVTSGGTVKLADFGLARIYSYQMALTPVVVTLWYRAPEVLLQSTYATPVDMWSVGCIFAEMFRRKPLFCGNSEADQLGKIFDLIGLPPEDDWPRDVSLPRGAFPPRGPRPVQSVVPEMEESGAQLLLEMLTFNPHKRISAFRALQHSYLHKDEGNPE
T1 sequence (P24385 whole entry partner): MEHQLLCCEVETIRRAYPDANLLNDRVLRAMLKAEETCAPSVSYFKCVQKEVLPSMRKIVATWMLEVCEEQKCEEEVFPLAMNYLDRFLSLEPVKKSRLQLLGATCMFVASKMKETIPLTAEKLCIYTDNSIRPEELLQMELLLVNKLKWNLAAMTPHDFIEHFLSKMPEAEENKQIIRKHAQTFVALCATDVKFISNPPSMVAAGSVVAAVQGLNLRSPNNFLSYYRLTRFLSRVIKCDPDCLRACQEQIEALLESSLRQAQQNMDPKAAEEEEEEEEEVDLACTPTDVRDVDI

In the case of `CC1(C)Cc2cccc3c4c5c(c6c7cccc8c7n(c6c4n(c23)C1)CCNC8)C(=O)NC5=O`, at cyclin D1-cdk4 [1], the IC50 was 51 nM.

On to `CC1(C)CCn2c3c1cc(F)cc3c1c3c(c4c5cccc6c5n(c4c12)CCNC6)C(=O)NC3=O`, for which the IC50 on cyclin D1-cdk4 [1] worked out at 413 nM.

The molecule `CC1(C)Cc2cccc3c(C4=C(c5cn6c7c(cccc57)CNCC6)C(=O)NC4=O)cn(c23)C1` yielded an IC50 against cyclin D1-cdk4 [1] of 621 nM.

Consider `CC1(C)CCn2cc(C3=C(c4cn5c6c(cccc46)CNCC5)C(=O)NC3=O)c3cc(F)cc1c32`, for which, at cyclin D1-cdk4 [1], the IC50 is 186 nM.

As to `CC1(C)CCn2cc(C3=C(c4cn5c6c(cccc46)CNCC5)C(=O)NC3=O)c3cccc1c32`, on cyclin D1-cdk4 [1], the IC50 is 537 nM.

`CC1(C)CCc2cccc3c(C4=C(c5cn6c7c(cccc57)CNCC6)C(=O)NC4=O)cn1c23` registered an IC50 at cyclin D1-cdk4 [1] of 349 nM.

On to `Cl.O=C1NC(=O)c2c1c1c3cccc4c3n(c1c1c2c2cccc3c2n1CCNC3)CCC4` [Example 5], for which, in test [2], the cell cycle arrest result is on record as “arrest cells in the G1 phase of the cell cycle”. Further, the “inhibition of Ser-780 pRb phosphorylation” value in test [3] was “inhibit Rb (retinoblastoma protein) phosphorylation”. Moreover, the cell growth inhibition result in test [4] is listed as “inhibit cell growth”.

`CN1CC[C@H](c2c(O)cc(O)c3c(=O)cc(-c4ccccc4Cl)oc23)[C@H](O)C1` [Flavopiridol]: the “concentration at which protein kinase A is inhibited” value in the test with protein kinase A is no less than 10 μM/L. Further, the “concentration at which protein kinase C is inhibited” value in the test on protein kinase C is no less than 10 μM/L.

For the molecule `O=C1NC(=O)c2c1c1c3cccc4c3n(c1c1c2c2cccc3c2n1CCCNC3)CCC4` [drawing 39], the IC50 against cyclin D1-cdk4 [1] was determined as 605 nM.

Turning to `O=C1NC(=O)c2c1c1c3cccc4c3n(c1c1c2c2cccc3c2n1CCNC3)CCC4` [drawing 40], at cyclin D1-cdk4 [1], the IC50 is 35.4 nM.

`O=C1NC(=O)C(c2cn3c4c(cccc24)NCCC3)=C1c1cn2c3c(cccc13)CCC2` [drawing 43]: the IC50 against cyclin D1-cdk4 [1] amounted to 143 nM.

Consider `O=C1NC(=O)c2c1c1c3cccc4c3n(c1c1c2c2cccc3c2n1CCCNC3)CCC4` [drawing 48], for which, on cyclin D1-cdk4 [5], the IC50 was 336 nM.

As for `O=C1NC(=O)c2c1c1c3cccc4c3n(c1c1c2c2cccc3c2n1CCNC3)CCC4` [drawing 49], the IC50 at cyclin D1-cdk4 [5] came to 5.8 nM.

Consider `O=C1NC(=O)C(c2cn3c4c(cccc24)NCCC3)=C1c1cn2c3c(cccc13)CCC2` [drawing 50], for which the IC50 at cyclin D1-cdk4 [5] was 196 nM.

The values above are taken from patent US6743785B2, “Agents and methods for the treatment of proliferative diseases” (Eli Lilly and Company, priority 1999, dated 2004).
